Reference: patent US6420428B1, “Treatment and prevention of hepatic disorders” (The Regents of the University of California, priority 1996, dated 2002)

Legend:
[1] = test system: α-smooth muscle actin (α-SMA) expression in hepatic stellate cells; experiment: Stellate cell activation: α-SMA expression by Western blot of freshly isolated stellate cells, CCl4-treated rats; type: in vivo, Sprague-Dawley rats; conditions: 200 mg/kg i.p., 48 h, metabolite 5 given as ester prodrug
Procedure: (§2) At least four Sprague-Dawley (Charles River Breeding Labs) male rats (50 to 60 g) were assigned to each of four testing groups (designated as “CCl4”, “pentoxifylline”, “metabolite 5”, and “control”). Each rat received a single intraperitoneal injection of CCl4 in mineral oil (1:3; v/v) at a dose of 2 mL/kg body weight (CCl4, pentoxifylline, and metabolite 5 groups), or mineral oil only (control group). In addition, animals received intraperitoneal injections (100 μL) of saline (control and CCl4 groups), 200 mg/kg pentoxifylline (pentoxifylline group), or 200 mg/kg of the ester prodrug of pentoxifylline metabolite 5 (metabolite 5 group) at the following times with respect to mineral oil or CCl4 administration: −4 h, +8 h, +20 h, +32 h, and +44 h.
Hepatic stellate cells were prepared from rats by in situ perfusion of the liver and single-step density Nycodenz® gradient (Accurate Chemical & Scientific Corp.). […] The cells were mixed with 9.5 mL Hank's buffer containing 3 g/L BSA and 8 mL of 28.7% (w/v) Nycodenz® in sodium-free Hank's buffer. The gradient was generated by placing 6 mL of the Hank's/BSA solution on top of the liver cell mixture in a 50 mL centrifugation tube. […]

[2] = test system: malondialdehyde-protein adducts; experiment: Hepatic lipid peroxidation (malondialdehyde-protein adducts, immunohistochemistry) in CCl4-treated rats; type: in vivo, Sprague-Dawley rats; conditions: 48 h
Procedure: (§1) Forty-eight hours after the CCl4 or mineral oil injection (and 4 hours after the [^3H]thymidine injection), the rats were sacrificed. Thereafter, liver tissues were promptly removed, and a piece was fixed in 10% formaldehyde and embedded in paraffin for immunohistochemical staining.
Liver tissue was immunostained with antisera, specific for malondialdehyde-lysine adducts, raised against malondialdehyde-lysine adducts as described by Houglum et al., J Clin Invest 96:2269-76 (1995). Briefly, guinea pig LDL was isolated and modified with MDA, and the homologous modified LDL was used to immunize guinea pigs.
A phase-contrast microscope was utilized for hematoxylin/eosin staining and immunohistochemistry with alkaline phosphatase secondary antibodies (Vector Laboratories). Cytochromes utilized were alkaline phosphatase with fast green as counterstain (Sigma Chemical Co.). Negative control samples were processed in parallel under the same conditions, but with omission of the primary antibody.
In order to ascertain whether or not the prevention of activation observed with pentoxifylline resulted from interfering with the hepatocellular injury induced by CCl4, the degree of hepatocellular injury and lipid peroxidation were determined in those animals. […] As set forth above, protein adducts with malondialdehyde were detected using specific antibodies against malondialdehyde-lysine epitopes.

NFkB = experiment: Mobility shift analysis of stellate cell nuclear extracts with NFkB oligonucleotide; type: in vivo, Sprague-Dawley rats; conditions: CCl4-treated rats, gel shift
Procedure: Gel retardation analysis of protein-DNA complexes were performed with an oligonucleotide of the putative DNA binding site.
For these analyses, equal amounts of nuclear protein were incubated with 1 ng of ^32P-labeled-NFkB (FIG. 3A) or ^32P-labeled-α-SMA-E box (FIG. 3B) oligonucleotides. The DNA-protein complexes were resolved by electrophoresis on a 6% nondenaturing polyacrylamide gel, the position of the bound DNA being indicated by arrows in FIGS. 3A-B. As described further below, some samples were incubated with specific antibodies or unlabeled oligonucleotide.
More specifically, FIG. 3A depicts DNA-protein complexes resolved by gel electrophoresis for representative samples of control (lane 2), CCl4 (lane 3), CCl4/pentoxifylline (lane 4); CCl4/metabolite 5 (lane 5); and CCl4+NFkB oligonucleotide (lane 6). On lane 1, the ^32P-labeled-NFkB probe was processed without nuclear extracts. […] The complex of ^32P-labeled NFkB oligonucleotides and nuclear extracts from activated stellate cells was competed by a NFkB cognate oligonucleotide (lane 6).

α-SMA-E box = experiment: Mobility shift analysis of stellate cell nuclear extracts with α-SMA-E box oligonucleotide; type: in vivo, Sprague-Dawley rats; conditions: CCl4-treated rats, gel shift
Procedure: as §2
Briefly, cells were homogenized in 1 mL of 5% citric acid, 0.5% NP-40, 10 mM sodium fluoride and 10 mM sodium pyrophosphate with a glass Dounce homogenizer with a loose fitting pestle. The homogenized cells were placed above a cushion consisting of 30% sucrose and 1% citric acid. The nuclei were precipitated by a 4,000 g centrifugation at 4° C. for 30 min. and frozen at −70° C.
Gel retardation analysis of protein-DNA complexes were performed with an oligonucleotide of the putative DNA binding site. […]

3T3 NIH fibroblasts = experiment: Fibroblast proliferation in culture; type: cell-based; conditions: for effect on fibroblast growth induced by cytokines PDGF, EGF and FGF: data not shown
Procedure: The biological activities of pentoxifylline and metabolite 5 were further studied by measuring their effects on the stimulation of fibroblast proliferation. For this study, 3T3 NIH fibroblasts were cultured in the presence or absence of pentoxifylline or metabolite 5.

[3] = test system: cAMP phosphodiesterase activity in hepatic stellate cells; experiment: CREB phosphorylation at Ser 133 in stellate cell nuclear extracts (Western blot) as measure of cAMP phosphodiesterase inhibition in vivo; parameters: species or system Sprague-Dawley rats; conditions: for expression of CREB-PSer133 in stellate cell nuclear extracts: CCl4-treated rats, Western blot
Procedure: Stellate cells were identified by their typical autofluorescence at 328 nm excitation wavelength, staining of lipid droplets by oil red, and immunohistochemistry with a monoclonal antibody against desmin. [Bedossa et al., Hepatology 19(5):1262-71 (1994)]. Detection of α-SMA, malondialdehyde-protein adducts, and CREB-PSer 133 in stellate cells extracts was performed by Western blot [Buck et al., EMBO J. 13:851-60 (1994)], and using antibodies directed against α-SMA (Vector Laboratories), malondialdehyde-lysine epitopes as described below [Trautwein et al., J. Clin. Invest. 93:2554-61 (1990)], or CREB-PSer 133 (Upstate Biotechnology).
Next, pentoxifylline and metabolite 5 were evaluated to determine whether they inhibit cAMP phosphodiesterase activity in hepatic stellate cells in vivo leading to an increase in protein kinase A-mediate phosphorylation. Because this signal transduction pathway triggers site-specific phosphorylation of the nuclear transcription factor CREB (cAMP responsive element binding protein) on Serine 133 [Yamamoto et al., Nature 334:494-98 (1988)], the induction of CREB phosphorylation at Ser 133 was analyzed in nuclear extracts from freshly isolated stellate cells using an antibody against the activated, phosphorylated form of CREB [Ginty et al., Science 260:238-42 (1993)].
FIG. 4B is a Western blot indicating the results of phosphorylation of CREB at Serine 133 in stellate cell nuclear extracts with control (lane 1), CCl4 (lane 2), CCl4/pentoxifylline (lane 3), and CCl4/metabolite 5 (lane 4) animals. […] Molecular markers (kilodaltons) are shown on the right margin of FIG. 4B. In addition to recognizing CREB, anti-CREB-PSer133 detected two other proteins. These are most likely members of the CREB-ATF family, ATF-1 and CREM, that have phosphoacceptor sequences similar to that of CREB-PSer133 [Ginty et al., Science 260:238-42 (1993)]. […] Neither CREB PSer133 nor phosphorylated members of the CREB-ATF family were detected in stellate cell nuclear extracts from CCl4-treated animals (lane 2).

[4] = after pentoxifylline; cited from earlier work
hepatic stellate cells = experiment: Stellate cell proliferation ([3H]thymidine incorporation into stellate cell DNA) in CCl4-treated rats; type: in vivo, Sprague-Dawley rats; conditions: 200 mg/kg i.p. at -4, +8, +20, +32, +44 h, 48 h, metabolite 5 given as ester prodrug
Procedure: as §1
Hepatic stellate cells were prepared from rats by in situ perfusion of the liver and single-step density Nycodenz® gradient (Accurate Chemical & Scientific Corp.). [See Bedossa et al., Hepatology 19(5):1262-71 (1994); Brenner et al., Mol. Biol. Med. 7:105-15 (1990); Schäfer et al., Hepatology 7(4):680-87 (1987)]. The cells were mixed with 9.5 mL Hank's buffer containing 3 g/L BSA and 8 mL of 28.7% (w/v) Nycodenz® in sodium-free Hank's buffer. […]
Nuclei were prepared by a modification of the procedure described previously, e.g., by Buck et al., EMBO J. 13:851-60 (1994). […] DNA was isolated, extracted and counted for [^3H]thymidine incorporation.
Stellate cell proliferation was assessed by the incorporation of [^3H]thymidine. Stellate cell activation was evaluated by the expression of α-smooth muscle actin (α-SMA). […]
The specific activity of stellate cell DNA, an index of S-phase labeling, was determined from at least four rats in each experimental group after 4 hours of labeling with [^3H]thymidine at 1 PM. […]

[5] = rat, in vivo
Procedure: At least four Sprague-Dawley (Charles River Breeding Labs) male rats (50 to 60 g) were assigned to each of four testing groups (designated as “CCl4”, “pentoxifylline”, “metabolite 5”, and “control”). Each rat received a single intraperitoneal injection of CCl4 in mineral oil (1:3; v/v) at a dose of 2 mL/kg body weight (CCl4, pentoxifylline, and metabolite 5 groups), or mineral oil only (control group). In addition, animals received intraperitoneal injections (100 μL) of saline (control and CCl4 groups), 200 mg/kg pentoxifylline (pentoxifylline group), or 200 mg/kg of the ester prodrug of pentoxifylline metabolite 5 (metabolite 5 group) at the following times with respect to mineral oil or CCl4 administration: −4 h, +8 h, +20 h, +32 h, and +44 h. The last injection (at +44h) included 30 μCi of 6-[^3H]thymidine (DuPont).

[6] = test system: cyclic nucleotide phosphodiesterases; conditions: cited from earlier work
dermal fibroblasts = conditions: cited from earlier work
[7] = phosphorus-induced hepatocellular necrosis; cited from earlier work

| SMILES | effect on stellate cell activation (α-SMA expression, Western blot) [1] | hepatic lipid peroxidation (malondialdehyde-protein adducts) versus CCl4 alone [2] | effect on NFkB nuclear binding activity of stellate cells (NFkB) | effect on complex between α-SMA-E box and stellate cell nuclear extracts (α-SMA-E box) | effect on fibroblast growth in logarithmic phase (3T3 NIH fibroblasts) | effect on fibroblast growth induced by cytokines PDGF, EGF and FGF (3T3 NIH fibroblasts) | expression of CREB-PSer133 in stellate cell nuclear extracts [3] | phosphodiesterase inhibitory activity ([3]; rat, in vivo) | plasma concentration relative to pentoxifylline [4] | effect on stellate cell proliferation (stellate cell DNA [3H]thymidine specific activity) (hepatic stellate cells) | toxicity of the dose to the animals [5] | phosphodiesterase inhibition [6] | collagen gene expression (dermal fibroblasts) | hepatic fibrosis [7] |
| --- | --- | --- | --- | --- | --- | --- | --- | --- | --- | --- | --- | --- | --- | --- |
| Cn1cnc2c1c(=O)n(CCCC(=O)O)c(=O)n2C [metabolite 5, 1-(3-carboxypropyl)-3,7-dimethylxanthine] | prevented the activation of stellate cells induced by CCl4 | did not affect | prevented NFkB nuclear activity induced by CCl4 | prevented the formation of a complex | block fibroblast growth in logarithmic phase | blocked fibroblast growth | not detected | lacks phosphodiesterase inhibitory activity | five times greater | – | – | – | – | – |
| CC(=O)CCCCn1c(=O)c2c(ncn2C)n(C)c1=O [pentoxifylline, 1-(5-oxohexyl)-3,7-dimethylxanthine] | prevented the activation of stellate cells induced by CCl4 | comparable | prevented NFkB nuclear activity induced by CCl4 | prevented the formation of a complex | block fibroblast growth in logarithmic phase | blocked fibroblast growth | markedly increased | – | – | abolished the proliferation of stellate cells | not toxic | non-specific inhibitor of cyclic nucleotide phosphodiesterases | inhibits collagen gene expression | prevented hepatic fibrosis |
